Source: US12673975B2, “Cyclic peptide, cell scaffold material, cell separating material, and medium” (FUJIFILM Corporation, priority 2019, dated 2026)
Where two headings read alike, the source gives them in different places. Starred links: 1 amine or outer side, 2 acyl side, 3 side chain; linkers in the order of their positions; H or OH if unused. Positions of bridges follow the written chain, without caps; N, C: chain ends. Non-standard residues stand in square brackets, D forms with d. Residues, ends and D or L forms follow the SMILES beside them. hCys = N[C@@H](CCS)C(=O)O; Dab = NCC[C@H](N)C(=O)O; Dap = NC[C@H](N)C(=O)O; X1 = O=C(C[*:2])[*:1]; X2 = O=C(C[*:1])[*:2]

Columns and labels:
human integrin αvβ5 = human integrin αvβ5 (Homo sapiens, UniProt P06756+P18084); experiment: Evaluation of integrin binding property (surface plasmon resonance, Biacore 3000, immobilized cyclic peptide)
Procedure, shortened: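 Human αvβ5 (30-1,000 nM) flowed for 10 min at 25 °C over immobilized cyclic peptide in 20 mM HEPES, 150 mM NaCl, 5 mM MgCl2, pH 7.4, followed by 30 min running buffer and 0.5 M EDTA regeneration. Dissociation constant from peptide minus unimmobilized channel, scored into standard grades.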

[1] = Evaluation of molecule stability (alkali treatment, residual rate by LC/MS); assay type: physicochemical; details: for Performance evaluation: Stability (residual rate of cyclic peptide after alkali treatment): 500 μM peptide aqueous solution plus equivalent of 1 M sodium hydroxide, 15° C., 3 hours, LC/MS peak area; for Stability (molecule stability, residual rate of the cyclic peptide rank): alkali treatment, residual rate by LC/MS
Procedure, shortened: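 Stability read as percent of summed LC/MS peak area remaining versus untreated peptide (C18, 45 °C, 10 mM ammonium formate pH 3, ESI positive/negative). Treatment: 500 μM peptide in water plus an equivalent of 1 M NaOH, 15 °C for 3 hours.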

[2] = SPR, 25° C., HEPES buffer with 5 mM magnesium chloride, integrin 30-1,000 nM, read-out: Performance evaluation: Binding activity (dissociation constant between the cyclic peptide and human integrin αvβ5)
[3] = surface plasmon resonance, immobilized cyclic peptide, human integrin αvβ5, read-out: Binding activity (integrin binding property, dissociation constant rank)

human integrin αvβ5, sequence (P06756 31-1048): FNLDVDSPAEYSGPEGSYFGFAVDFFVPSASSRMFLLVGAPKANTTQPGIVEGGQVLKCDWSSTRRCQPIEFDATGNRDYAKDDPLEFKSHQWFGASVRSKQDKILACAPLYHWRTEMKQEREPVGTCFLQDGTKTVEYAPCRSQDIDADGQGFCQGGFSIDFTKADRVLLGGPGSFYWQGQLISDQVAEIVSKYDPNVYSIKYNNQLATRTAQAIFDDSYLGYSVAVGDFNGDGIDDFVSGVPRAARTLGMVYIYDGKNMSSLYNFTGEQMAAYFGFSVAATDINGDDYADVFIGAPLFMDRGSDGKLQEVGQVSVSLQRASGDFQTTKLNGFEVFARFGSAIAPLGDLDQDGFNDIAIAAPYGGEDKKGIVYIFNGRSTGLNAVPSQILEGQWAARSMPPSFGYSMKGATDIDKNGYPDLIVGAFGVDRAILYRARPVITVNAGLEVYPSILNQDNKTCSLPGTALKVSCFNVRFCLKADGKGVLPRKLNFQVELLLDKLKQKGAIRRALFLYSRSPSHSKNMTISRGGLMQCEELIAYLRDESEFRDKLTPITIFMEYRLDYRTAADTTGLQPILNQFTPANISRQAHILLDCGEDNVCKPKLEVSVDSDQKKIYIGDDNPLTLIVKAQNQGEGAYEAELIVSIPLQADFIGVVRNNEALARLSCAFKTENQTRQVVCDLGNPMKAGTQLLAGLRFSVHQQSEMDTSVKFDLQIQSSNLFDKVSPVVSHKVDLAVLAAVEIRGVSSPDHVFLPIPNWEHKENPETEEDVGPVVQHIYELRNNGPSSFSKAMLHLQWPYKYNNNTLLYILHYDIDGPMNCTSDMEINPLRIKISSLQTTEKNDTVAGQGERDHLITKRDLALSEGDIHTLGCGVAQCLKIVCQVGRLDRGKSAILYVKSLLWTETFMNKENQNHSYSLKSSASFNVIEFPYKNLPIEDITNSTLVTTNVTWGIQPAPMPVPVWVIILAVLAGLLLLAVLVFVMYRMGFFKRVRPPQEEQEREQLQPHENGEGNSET
human integrin αvβ5, sequence (P18084 24-799): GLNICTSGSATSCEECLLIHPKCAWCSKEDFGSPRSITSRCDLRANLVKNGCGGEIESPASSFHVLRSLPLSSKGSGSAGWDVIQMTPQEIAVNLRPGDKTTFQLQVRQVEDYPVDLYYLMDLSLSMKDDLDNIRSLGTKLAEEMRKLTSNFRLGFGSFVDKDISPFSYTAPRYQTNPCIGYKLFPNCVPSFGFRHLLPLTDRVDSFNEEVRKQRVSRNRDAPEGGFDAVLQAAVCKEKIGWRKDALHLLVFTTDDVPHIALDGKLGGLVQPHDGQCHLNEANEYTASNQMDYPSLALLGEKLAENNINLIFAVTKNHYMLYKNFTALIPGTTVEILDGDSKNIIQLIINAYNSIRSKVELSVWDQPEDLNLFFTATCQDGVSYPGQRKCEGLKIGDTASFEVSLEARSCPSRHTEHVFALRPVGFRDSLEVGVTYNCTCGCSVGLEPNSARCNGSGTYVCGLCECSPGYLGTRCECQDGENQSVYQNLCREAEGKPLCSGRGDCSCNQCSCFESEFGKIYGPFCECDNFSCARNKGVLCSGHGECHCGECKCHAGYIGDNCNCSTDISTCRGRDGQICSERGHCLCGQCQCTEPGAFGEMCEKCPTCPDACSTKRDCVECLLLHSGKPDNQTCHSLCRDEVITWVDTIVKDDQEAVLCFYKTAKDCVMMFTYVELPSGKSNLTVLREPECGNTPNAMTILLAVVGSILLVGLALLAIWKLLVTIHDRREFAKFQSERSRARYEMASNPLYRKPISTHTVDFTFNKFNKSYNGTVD

| SMILES | Kd (human integrin αvβ5; [2]) | Kd (human integrin αvβ5; [3]) | Performance evaluation: Stability (residual rate of cyclic peptide after alkali treatment) [1] | Stability (molecule stability, residual rate of the cyclic peptide rank) [1] |
| --- | --- | --- | --- | --- |
| CC(C)C[C@@H]1NC(=O)[C@@H](NC(=O)[C@H](C)NC(=O)[C@H](CCCCN)NC(=O)[C@H](CCCCN)NC(=O)[C@@H](N)CCCCN)CCSCC(=O)NCC[C@@H](C(=O)N[C@@H](CC(=O)O)C(=O)O)NC(=O)[C@H](CCCNC(=N)N)NC(=O)[C@H](Cc2ccc(O)cc2)NC(=O)[C@H](CC(N)=O)NC(=O)[C@H](CC(=O)O)NC(=O)CNC(=O)[C@H](CCCNC(=N)N)NC(=O)[C@@H]2CCCN2C1=O [Cyclic peptide 31, KKKA-(Hcy)-LPRGDNYR(Dab(acetyl))D] (H-KKKA[hCys]LPRGDNYR[Dab]D-OH; linker 5-14 via X2) | < 50 nM | – | A (The residual rate of the cyclic peptide is 70% or more.) | – |
| CC(C)[C@@H]1NC(=O)[C@@H](NC(=O)[C@H](C)NC(=O)[C@H](CCCCN)NC(=O)[C@H](CCCCN)NC(=O)[C@@H](N)CCCCN)CCSCC(=O)NCC[C@@H](C(=O)N[C@@H](CC(=O)O)C(=O)O)NC(=O)[C@H](CCCNC(=N)N)NC(=O)[C@H](Cc2ccc(O)cc2)NC(=O)[C@H](CC(N)=O)NC(=O)[C@H](CC(=O)O)NC(=O)CNC(=O)[C@H](CCCNC(=N)N)NC(=O)[C@@H]2CCCN2C1=O [Cyclic peptide 29, KKKA-(Hcy)-VPRGDNYR(Dab(acetyl))D] (H-KKKA[hCys]VPRGDNYR[Dab]D-OH; linker 5-14 via X2) | 50 to 100 nM | – | A (The residual rate of the cyclic peptide is 70% or more.) | – |
| CC[C@H](C)[C@@H]1NC(=O)[C@@H](NC(=O)[C@H](CCCCN)NC(=O)[C@H](CCCCN)NC(=O)[C@@H](N)CCCCN)CCSCC(=O)NCC[C@@H](C(=O)N[C@@H](C)C(=O)O)NC(=O)[C@H](CCCNC(=N)N)NC(=O)[C@H](Cc2ccccc2)NC(=O)[C@H](CO)NC(=O)[C@H](CC(=O)O)NC(=O)CNC(=O)[C@H](CCCNC(=N)N)NC(=O)[C@@H]2CCCN2C1=O [Cyclic peptide 25, KKK-(Hcy)-IPRGDSFR(Dab(acetyl))A] (H-KKK[hCys]IPRGDSFR[Dab]A-OH; linker 4-13 via X2) | 50 to 100 nM | – | A (The residual rate of the cyclic peptide is 70% or more.) | – |

More lines, main results first:

| Kd (human integrin αvβ5; [2]) | Kd (human integrin αvβ5; [3]) | SMILES | Performance evaluation: Stability (residual rate of cyclic peptide after alkali treatment) [1] | Stability (molecule stability, residual rate of the cyclic peptide rank) [1] |
| --- | --- | --- | --- | --- |
| – | < 50 nM | CC(C)[C@@H]1NC(=O)[C@H](CC(=O)O)NC(=O)CNC(=O)[C@H](CCCNC(=N)N)NC(=O)[C@@H]2CCCN2C(=O)[C@H](C(C)C)NC(=O)[C@@H](NC(=O)[C@H](CCCCN)NC(=O)[C@H](CCCCN)NC(=O)[C@@H](N)CCCCN)CCSCC(=O)NCC[C@@H](C(=O)O)NC(=O)[C@H](C)NC(=O)[C@H](Cc2ccccc2)NC1=O [Cyclic peptide 151, KKK-(Hcy)-VPRGDVFA(Dab(acetyl))] (H-KKK[hCys]VPRGDVFA[Dab]-OH; linker 4-13 via X2) | – | A (The residual rate of the cyclic peptide is 70% or more.) |
| – | < 50 nM | CC[C@H](C)[C@@H]1NC(=O)[C@@H](NC(=O)CNC(=O)[C@H](CCCCN)NC(=O)[C@H](CCCCN)NC(=O)[C@@H](N)CCCCN)CNC(=O)CSCC[C@@H](C(=O)N[C@@H](C)C(=O)O)NC(=O)[C@H](CCCNC(=N)N)NC(=O)[C@H](Cc2ccccc2)NC(=O)[C@H]([C@@H](C)O)NC(=O)[C@H](CC(=O)O)NC(=O)CNC(=O)[C@H](CCCNC(=N)N)NC(=O)[C@@H]2CCCN2C1=O [Cyclic peptide 117, KKKG(Dap(acetyl))IPRGDTFR-(Hcy)-A] (H-KKKG[Dap]IPRGDTFR[hCys]A-OH; linker 5-14 via X1) | – | B (The residual rate of the cyclic peptide is 50% or more and less than 70%.) |
